Experiments:
[1] = system: AMBEL (Ragweed, Common); experiment: Postemergence herbicidal evaluation; assay type: in vivo, Ambrosia artemisifolia; conditions: postemergence
Summary of the method: (§1)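 ~2-wk seedlings; postemergence spray, 40 psi; vehicle 1:1 acetone:water + 0.5% Tween 20; rate ≈0.0156–0.500 kg/ha; greenhouse hold; scored 4–5 wk after treatment, 0–9 scale vs control; repeat tests averaged.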

[2] = system: CASOB (Sicklepod); experiment: Preemergence herbicidal evaluation; assay type: in vivo, Cassia obtusifolia; conditions: rated 4-5 weeks after treatment
Summary of the method: (§2)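 Test compound, dissolved in aqueous acetone, was sprayed over planted soil cups at an equivalent of about 0.0156 to 0.500 kg/ha; seeds had been mixed with potting soil. Greenhouse growth followed, with visual 0-9 scoring of injury at four to five weeks.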

[3] = system: AMBEL (Ragweed, Common); experiment: Preemergence herbicidal evaluation; assay type: in vivo, Ambrosia artemisifolia; conditions: rated 4-5 weeks after treatment
Summary of the method: as §2

[4] = system: CYPSE (Flatsedge); experiment: Preemergence weed control under flooded paddy conditions; assay type: in vivo, Cyperus serotinus; conditions: rated 3-4 weeks after treatment
Summary of the method: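 Visual injury scored 0-9 against control three to four weeks post-treatment, greenhouse-grown. Application: acetone/water (50/50) solutions dosed directly into flood water (1.5-3 cm over silt loam, planted top 0.5 cm), roughly 0.0313 to 0.500 kg/ha active ingredient.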

[5] = system: ABUTH (Velvetleaf); experiment: Postemergence herbicidal evaluation; assay type: in vivo, Abutilon theophrasti; conditions: postemergence
Summary of the method: as §1

[6] = system: ORYSAT (Rice, Tebonnet); experiment: Postemergence herbicidal evaluation; assay type: in vivo, Oryza sativa, (L.) Tebonnet; conditions: postemergence
Summary of the method: as §1

[7] = system: CHEAL (Lambsquarters, Common); experiment: Postemergence herbicidal evaluation; assay type: in vivo, Chenopodium album; conditions: postemergence
Summary of the method: as §1

[8] = system: GALAP (Galium); experiment: Preemergence herbicidal evaluation; assay type: in vivo, Galium aparine; conditions: rated 4-5 weeks after treatment
Summary of the method: as §2

[9] = system: ECHCG (Barnyardgrass); experiment: Postemergence herbicidal evaluation; assay type: in vivo, Echinochloa crus-galli; conditions: postemergence
Summary of the method: as §1

[10] = system: ZEAMX (Corn, Field); experiment: Postemergence herbicidal evaluation; assay type: in vivo, Zea mays; conditions: postemergence
Summary of the method: as §1

[11] = system: CHEAL (Lambsquarters, Common); experiment: Preemergence herbicidal evaluation; assay type: in vivo, Chenopodium album; conditions: rated 4-5 weeks after treatment
Summary of the method: as §2

[12] = system: GLXMAW (Soybean, Williams); experiment: Postemergence herbicidal evaluation; assay type: in vivo, Glycine max, (L.) Merr. cv Williams; conditions: postemergence
Summary of the method: as §1

CCCCOC(=O)CN1C(=O)CSC1=Nc1cc(-n2c(=O)cc(C(F)(F)F)n(C)c2=O)c(F)cc1Cl [Compound 111]
herbicidal rating AMBEL ([1]; rate 0.0158 kg/ha): 4.0
herbicidal rating AMBEL ([1]; rate 0.0315 kg/ha): 6.0
herbicidal rating AMBEL ([1]; rate 0.0630 kg/ha): 9.0
Preemergence herbicidal rating CASOB ([2]; rate 0.0156 kg/ha): 0.0
Preemergence herbicidal rating CASOB ([2]; rate 0.0313 kg/ha): 0.0
Preemergence herbicidal rating CASOB ([2]; rate 0.0625 kg/ha): 1.0
Preemergence herbicidal rating CASOB ([2]; rate 0.1250 kg/ha): 1.0
Preemergence herbicidal rating CASOB ([2]; rate 0.2500 kg/ha): 9.0
Preemergence herbicidal rating AMBEL ([3]; rate 0.0156 kg/ha): 0.0
Preemergence herbicidal rating AMBEL ([3]; rate 0.0313 kg/ha): 0.0
Preemergence herbicidal rating AMBEL ([3]; rate 0.0625 kg/ha): 0.0
Preemergence herbicidal rating AMBEL ([3]; rate 0.1250 kg/ha): 6.0
Preemergence herbicidal rating AMBEL ([3]; rate 0.2500 kg/ha): 7.0
CYPSE herbicidal effect rating ([4]; 0.0625 kg/ha): 4.0
CYPSE herbicidal effect rating ([4]; 0.1250 kg/ha): 9.0
CYPSE herbicidal effect rating ([4]; 0.2500 kg/ha): 9.0
herbicidal rating ABUTH ([5]; rate 0.0158 kg/ha): 7.0
herbicidal rating ABUTH ([5]; rate 0.0315 kg/ha): 9.0
herbicidal rating ABUTH ([5]; rate 0.0630 kg/ha): 9.0
herbicidal rating ORYSAT ([6]; rate 0.0158 kg/ha): 2.5
herbicidal rating ORYSAT ([6]; rate 0.0315 kg/ha): 4.5
herbicidal rating ORYSAT ([6]; rate 0.0630 kg/ha): 4.5
herbicidal rating CHEAL ([7]; rate 0.0158 kg/ha): 2.0
herbicidal rating CHEAL ([7]; rate 0.0315 kg/ha): 6.0
herbicidal rating CHEAL ([7]; rate 0.0630 kg/ha): 7.0
Preemergence herbicidal rating GALAP ([8]; rate 0.0156 kg/ha): 0.0
Preemergence herbicidal rating GALAP ([8]; rate 0.0313 kg/ha): 0.0
Preemergence herbicidal rating GALAP ([8]; rate 0.0625 kg/ha): 0.0
Preemergence herbicidal rating GALAP ([8]; rate 0.1250 kg/ha): 6.0
Preemergence herbicidal rating GALAP ([8]; rate 0.2500 kg/ha): 7.0
herbicidal rating ECHCG ([9]; rate 0.0158 kg/ha): 3.0
herbicidal rating ECHCG ([9]; rate 0.0315 kg/ha): 4.0
herbicidal rating ECHCG ([9]; rate 0.0630 kg/ha): 9.0
herbicidal rating ZEAMX ([10]; rate 0.0158 kg/ha): 6.5
herbicidal rating ZEAMX ([10]; rate 0.0315 kg/ha): 6.5
herbicidal rating ZEAMX ([10]; rate 0.0630 kg/ha): 7.0
Preemergence herbicidal rating CHEAL ([11]; rate 0.0313 kg/ha): 0.0
Preemergence herbicidal rating CHEAL ([11]; rate 0.0625 kg/ha): 9.0
Preemergence herbicidal rating CHEAL ([11]; rate 0.1250 kg/ha): 9.0
Preemergence herbicidal rating CHEAL ([11]; rate 0.2500 kg/ha): 9.0
herbicidal rating GLXMAW ([12]; rate 0.0158 kg/ha): 6.0
herbicidal rating GLXMAW ([12]; rate 0.0315 kg/ha): 6.0
herbicidal rating GLXMAW ([12]; rate 0.0630 kg/ha): 6.0
